From US5621102A, “Process for preparing enantiomerically pure xanthine derivatives” (Cell Therapeutics, Inc., priority 1995, dated 1997)

What was measured:
smooth muscle cells = test: smooth muscle proliferation stimulated by PDGF and IL-1; type: cell-based; settings: drug added two hours prior to activation
Source text: CT1501R and PTX were separately added to the cells two hours prior to activation with PDGF and IL-1.

[1] = tested on: PBMC (peripheral blood mononuclear cells); test: two-way mixed lymphocyte reaction (MLR); type: cell-based, human
Source text: Various in vitro assays can be used to measure effects of the inventive compounds to module immune activity and have antitumor activity using a variety of cellular types. For example, a mixed lymphocyte reaction (MLR) provides a valuable screening tool to determine biological activity of each inventive compound. In the MLR, PBMCs (peripheral blood mononuclear cells) are obtained by drawing whole blood from healthy volunteers in a heparinized container and diluted with an equal volume of hanks balanced salt solution (HBSS). This mixture is layered on a sucrose density gradient, such as a Ficoll-Hypaque® gradient (specific gravity 1.08), and centrifuged at 1000×g for 25 minutes at room temperature or cooler. PBMC are obtained from a band at a plasma-Ficoll interface, separated and washed at least twice in a saline solution, such as HBSS. Contaminating red cells are lysed, such as by ACK lysis for 10 min at 37° C., and the PBMCs are washed twice in HBSS. The pellet of purified PBMCs is resuspended in complete medium, such as RPMI 1640 plus 20% human inactivated serum. Proliferative response of PBMC to allogeneic stimulation is determined in a two-way MLR performed in a 96-well microliter plate. […] At the conclusion of the incubation tritiated thymidine is added (for example, 1 μCi/well of 40 to 60 Ci/mmole) and proliferation determined by liquid scintillation counting. […]

[2] = tested on: hair follicles of nu/nu mice; test: nude mouse hair studies, topical application; type: in vivo; settings: second experiment; 60% ETOH, 10% water, 30% PEG base, twice daily, 34 days
Source text: This example illustrates nude mouse hair studies involving topical application of CT1501R. Six to eight week old, female, nu/nu mice from Charles River Laboratories were housed at Biosupport Research Support Services (Seattle, Wash.) in autoclaved micro isolator units with hyperchlorinated autoclaved water, irradiated rodent chow and kept under a laminar flow hood. Caging was changed weekly, and water was changed twice weekly. The mice were acclimated for 5 days before beginning each study.
The first topical formulation was prepared by adding CT1501R to a heated hydrophilic ointment (USP) at a 1% concentration, and allowed to solidify.
Nude mice were painted twice daily for 16 days with the first topical formulation of CT1501R on the left flank and another compound in the same base on the right flank with sterile applicators. Mice were handled under the laminar flow hood with applicator wearing face mask and sterile gloves. After 16 days, one mouse was sacrificed by cervical dislocation and skin biopsies were taken of the treated areas of the shoulder/flank and from the non-treated area of the dorsal pelvis (rump). Specimens were placed in 10% buffered formalin solution. Biopsies were sent to a veterinary dermopathologist for histopathology. Six weeks following treatment, a second mouse was euthanatized and biopsied the same as the first. Samples were sent for histopathology.
In a second experiment, topical application of CT1501R was performed along with a commercial topical minoxidil preparation (Rogaine®, Upjohn) that is approved for a hair growth indication. Five to six week old, female, nu/nu mice from Bantin and Kingman Universal were housed at Biosupport Research Support Services (Seattle, Wash.) in autoclaved micro isolator units with hyper chlorinated autoclaved water, irradiated rodent chow and kept under a laminar flow hood. Caging was changed weekly, and water was changed twice weekly. Mice were acclimated for 7 days before beginning study, […]

CC(=O)CCCCn1c(=O)c2c(ncn2C)n(C)c1=O [PTX, 1-(5-oxohexyl)-3,7-dimethylxanthine, reference compound]
inhibition of smooth muscle cell proliferation (smooth muscle cells): inhibited smooth muscle cell proliferation at the higher doses tested
proliferative response of PBMC to allogeneic stimulation [1]: showed dose-response activity

Nc1cc(N2CCCCC2)nc(N)[n+]1[O-] [minoxidil, reference compound]
hair follicles, subjective histopathological examination [2]: fair response to treatment
